Results: patent US10577383B2, “Macrocyclic inhibitors of myeloperoxidase” (BRISTOL-MYERS SQUIBB COMPANY, priority 2016, dated 2020)
Like-named read-outs stand apart in the source and are kept apart here.

How the values were obtained:
myeloperoxidase [1] = molecular target: T1, myeloperoxidase (Homo sapiens (Human), UniProt P05164); assay: MPO Peroxidation Assay (Amplex Red Assay); type: biochemical; details: MPO peroxidation activity, 100 mM KPi (pH 7.4), ten minute preincubation; potency ranges defined in nM
Protocol: MPO Peroxidation Assay (Amplex Red Assay)
MPO peroxidation activity was measured in 100 mM KPi (pH 7.4) by utilizing the non-fluorescent reagent Amplex Red (Invitrogen Cat. #A12222) which can be oxidized to the highly fluorescent resorufin. Amplex Red is oxidized by the peroxidase action of MPO to resorufin. Reactions were carried out in 50 μL total volume by adding a 25 μL mixture of 200 pM myeloperoxidase and 40 nM H2O2 (Sigma #349887) to 100 nL inhibitor in 100% DMSO in a 384 well Perkin Elmer Optiplate. Enzyme and compound were preincubated for ten minutes at room temperature.
After the ten minute preincubation, 25 μL of an Amplex Red mixture containing 200 μM Amplex Red and 10 mM H2O2 was added to the plate. Kinetic determinations were carried out immediately on a Perkin Elmer Envision (15 minute kinetic read, Ex: 535 nm, Em: 590 nm).
(§1) IC50 values were calculated by determining the slope of the linear portion of the kinetic trace (180-540 secs), and using that calculated slope to determine % inhibition occurring at each concentration of inhibitor using the following equation:
(§2) [formula] where A=minimal Y value (activity level of inhibited sample), B=maximal Y value (activity level of uninhibited sample), C=Log IC50, D=Hill Slope, x=concentration of inhibitor. MPO Chlorination Assay (APF Assay) MPO chlorination activity was measured in 100 mM KPi (pH 7.4) by utilizing the non-fluorescent reagent Aminophenyl fluorescein (APF, Invitrogen Cat. #A36003). APF is cleaved by (—OCl) to yield the fluorescent compound fluorescein. Reactions were carried out in 50 μL total volume by adding a 25 μL mixture of 200 pM myeloperoxidase and 120 mM NaCl to 100 nL inhibitor in 100% DMSO in a 384 well, non-binding surface clear bottom plate (Corning #3655). Enzyme, inhibitor, and chloride were preincubated for ten minutes at room temperature.

myeloperoxidase [2] = molecular target: T1, myeloperoxidase; assay: MPO Chlorination Assay (APF Assay); type: biochemical; details: MPO chlorination activity, 100 mM KPi (pH 7.4), 120 mM NaCl, ten minute preincubation; potency ranges defined in nM
Protocol: as §2
After the ten minute preincubation, 25 μL of an APF mixture containing […], 120 mM NaCl and 10 μM H2O2 was added to the plate using the internal dispensing system of a Hammatsu FDSS 6000. Kinetic determinations were carried out immediately on the FDSS 6000 (3 minute kinetic read, 1 read every second, ex: 485 nm, em: 535 nm). IC50 values for inhibitors were calculated by taking the slope of the linear portion of the kinetic measurement (20 seconds to 80-120 secs).
as §1
[formula] where A=minimal Y value (activity level of inhibited sample), B=maximal Y value (activity level of uninhibited sample), C=Log IC50, D=Hill Slope, x=concentration of inhibitor. EPX Bromination Assay

T1 sequence (P05164 49-745): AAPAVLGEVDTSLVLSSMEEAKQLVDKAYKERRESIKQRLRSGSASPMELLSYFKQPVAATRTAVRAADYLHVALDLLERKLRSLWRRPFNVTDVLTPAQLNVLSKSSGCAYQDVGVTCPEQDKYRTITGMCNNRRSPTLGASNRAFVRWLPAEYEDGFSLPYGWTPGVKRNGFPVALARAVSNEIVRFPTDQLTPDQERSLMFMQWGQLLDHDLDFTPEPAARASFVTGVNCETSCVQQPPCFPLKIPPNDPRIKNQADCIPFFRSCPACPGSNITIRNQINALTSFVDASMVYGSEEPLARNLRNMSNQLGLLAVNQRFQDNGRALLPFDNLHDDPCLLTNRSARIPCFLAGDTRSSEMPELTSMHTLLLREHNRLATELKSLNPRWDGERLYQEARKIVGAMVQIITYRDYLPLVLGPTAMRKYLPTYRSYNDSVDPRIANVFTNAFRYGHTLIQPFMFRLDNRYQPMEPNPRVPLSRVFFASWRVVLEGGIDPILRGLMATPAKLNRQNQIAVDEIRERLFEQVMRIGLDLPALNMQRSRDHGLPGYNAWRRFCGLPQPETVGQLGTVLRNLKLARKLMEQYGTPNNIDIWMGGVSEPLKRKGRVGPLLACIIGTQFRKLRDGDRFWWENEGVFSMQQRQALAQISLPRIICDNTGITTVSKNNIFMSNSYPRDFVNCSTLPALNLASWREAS

SMILES	IC50 (myeloperoxidase [1])	IC50 (myeloperoxidase [2])	also measured
CC1(C)OB(c2cnn(Cc3cccc(Oc4cccc(CCNC/C=C(\I)c5cc(NC(c6ccccc6)(c6ccccc6)c6ccccc6)nc6c5nnn6C(c5ccccc5)(c5ccccc5)c5ccccc5)c4)c3)c2)OC1(C)C			ring closure, isolated yield (the molecule shown is the open-chain precursor, cc_pd bond, 17-membered ring, PdCl2(dppf)-CH2Cl2/K2CO3, dioxane/H2O, 2.45 mM, 85.0 °C): 35.1%
CC(C)(C)OC(=O)N(C/C=C(\I)c1cc(NC(c2ccccc2)(c2ccccc2)c2ccccc2)nc2c1nnn2C(c1ccccc1)(c1ccccc1)c1ccccc1)[C@H]1C[C@H](Cc2ccccc2)[C@H](Oc2cccc(Cn3cc(B4OC(C)(C)C(C)(C)O4)cn3)c2)C1			ring closure, isolated yield (the molecule shown is the open-chain precursor, cc_pd bond, 15-membered ring, PdCl2(dppf)-CH2Cl2/K2CO3, dioxane/H2O, 1.0 mM, 85.0 °C): 45%
CC(C)(C)OC(=O)N1CC=C(c2cc(N)nc3[nH]nnc23)c2cnn(c2)Cc2cccc(c2)O[C@@H]2CC13CCC2(c1ccccc1)CC3			ring closure, isolated yield (from CC(C)(C)OC(=O)N(C/C=C(\c1cnn(Cc2cccc(O)c2)c1)c1cc(N)nc2[nH]nnc12)C12CCC(c3ccccc3)(CC1)[C@@H](O)C2, ether bond, 15-membered ring, cyanomethylenetributylphosphorane, toluene, 5.0 mM, 100.0 °C): 85%
Oc1cccc(Cn2cc(C(CCNCc3cccc(I)c3)c3cc(NC(c4ccccc4)(c4ccccc4)c4ccccc4)nc4c3nnn4C(c3ccccc3)(c3ccccc3)c3ccccc3)cn2)c1 (stereo not drawn)			ring closure, isolated yield (the molecule shown is the open-chain precursor, ether bond, 16-membered ring, CuI/1,10-phenanthroline/Cs2CO3, toluene, 4.8 mM, 150.0 °C): 29%
CC(C)(C)OC(=O)N(C/C=C(\I)c1cc(NC(c2ccccc2)(c2ccccc2)c2ccccc2)nc2c1nnn2C(c1ccccc1)(c1ccccc1)c1ccccc1)CC(=O)N(CCc1ccccc1)Cc1cccc(Cn2cc(B3OC(C)(C)C(C)(C)O3)cn2)c1			ring closure, isolated yield (the molecule shown is the open-chain precursor, cc_pd bond, 15-membered ring, PdCl2(dppf)-CH2Cl2/K2CO3, dioxane/H2O, 1.07 mM, 85.0 °C): 42%
Nc1cc(C2CCN[C@H](CO)Cc3cccc(c3)Oc3cccc(c3)Cn3cc2cn3)c2nn[nH]c2n1 (stereo partly drawn) [Example 11, [(11S)-7-{5-Amino-3H-[1,2,3]triazolo[4,5-b]pyridin-7-yl}-18-oxa-3,4,10-triazatetracyclo[17.3.1.1^3,^6.1^13,^1^7]pentacosa-1(23),4,6(25),13,15,17(24),19,21-octaen-11-yl]methanol]	101 to 999 nM	1 to 100 nM	
CC(C)(C)OC(=O)N(C/C=C(\I)c1cc(NC(c2ccccc2)(c2ccccc2)c2ccccc2)nc2c1nnn2C(c1ccccc1)(c1ccccc1)c1ccccc1)CCCOc1cccc(Cn2cc(B3OC(C)(C)C(C)(C)O3)cn2)c1			ring closure, isolated yield (the molecule shown is the open-chain precursor, cc_pd bond, 15-membered ring, PdCl2(dppf)-CH2Cl2/K2CO3, dioxane/H2O, 1.04 mM, 85.0 °C): 39.1%
Nc1cc(C2CCNCC3(CC3)COc3cccc(c3)Cn3cc2cn3)c2nn[nH]c2n1 (stereo not drawn) [Example 19, 7-{14′-Oxa-3′,4′,10′-triazaspiro[cyclopropane-1,12′-tricyclo[13.3.1.1^3,^6]icosane]-1′(19′),4′,6′(20′),15′,17′-pentaen-7′-yl}-3H-[1,2,3]triazolo[4,5-b]pyridin-5-amine]	101 to 999 nM	1 to 100 nM	
Nc1cc(C2CCNC34CCC(c5ccccc5)(CC3)[C@H](C4)Oc3cccc(c3)Cn3cc2cn3)c2nn[nH]c2n1 (stereo partly drawn) [Example 27, 7-[(17S)-18-Phenyl-16-oxa-2,8,9-triazapentacyclo[16.2.2.1^1,^1^7.1^6,^9.1^11,^1^5]pentacosa-6(25),7,11(24),12,14-pentaen-5-yl]-3H-[1,2,3]triazolo[4,5-b]pyridin-5-amine]	1 to 100 nM	1 to 100 nM	
Nc1cc(C2CCNCCc3cccc(c3)Oc3cccc(c3)Cn3cc2cn3)c2nn[nH]c2n1 (stereo not drawn) [Example 3, 7-{18-oxa-3,4,10-triazatetracyclo[17.3.1.1^3,^6.1^13,^1^7]pentacosa-1(23),4,6(25),13,15,17(24),19,21-octaen-7-yl}-3H-[1,2,3]triazolo[4,5-b]pyridin-5-amine]	1 to 100 nM	1 to 100 nM	
Nc1cc(C2CCNCc3cccc(c3)OCc3cccc(c3)Cn3cc2cn3)c2nn[nH]c2n1 (stereo not drawn) [Example 9, 7-{17-Oxa-3,4,10-triazatetracyclo[17.3.1.1^3,^6.1^12,^1^6]pentacosa-1(23),4,6(25),12,14,16(24),19,21-octaen-7-yl}-3H-[1,2,3]triazolo[4,5-b]pyridin-5-amine]	1 to 100 nM	1 to 100 nM	
Nc1cc([C@@H]2CCN[C@H]3C[C@H](Cc4ccccc4)[C@@H](C3)Oc3cccc(c3)Cn3cc2cn3)c2nn[nH]c2n1 [Example 25, 7-[(3R,4S,6S,10S)-4-Benzyl-2-oxa-7,13,14-triazatetracyclo[14.3.1.1^3,^6.1^11,^1^4]docosa-1(19),11(21),12,16(20),17-pentaen-10-yl]-3H-[1,2,3]triazolo[4,5-b]pyridin-5-amine]	1 to 100 nM	1 to 100 nM	
Nc1cc([C@H]2CCN[C@H]3C[C@H](Cc4ccccc4)[C@@H](C3)Oc3cccc(c3)Cn3cc2cn3)c2nn[nH]c2n1 [Example 26, 7-[(3R,4S,6S,10R)-4-Benzyl-2-oxa-7,13,14-triazatetracyclo[14.3.1.1^3,^6.1^11,^1^4]docosa-1(19),11(21),12,16(20),17-pentaen-10-yl]-3H-[1,2,3]triazolo[4,5-b]pyridin-5-amine]	1 to 100 nM	1 to 100 nM	
C[C@H]1Cc2cccc(c2)Oc2cccc(c2)Cn2cc(cn2)C(c2cc(N)nc3[nH]nnc23)CCN1 (stereo partly drawn) [Example 7, 7-[(11S)-11-Methyl-18-oxa-3,4,10-triazatetracyclo[17.3.1.1^3,^6.1^13,^1^7]pentacosa-1(23),4,6(25),13,15,17(24),19,21-octaen-7-yl]-3H-[1,2,3]triazolo[4,5-b]pyridin-5-amine]	1 to 100 nM	1 to 100 nM	
C[C@@H](Cc1cccc(Oc2cccc(Cn3cc(B4OC(C)(C)C(C)(C)O4)cn3)c2)c1)N(C/C=C(\I)c1cc(NC(c2ccccc2)(c2ccccc2)c2ccccc2)nc2c1nnn2C(c1ccccc1)(c1ccccc1)c1ccccc1)C(=O)OC(C)(C)C			ring closure, isolated yield (the molecule shown is the open-chain precursor, cc_pd bond, 17-membered ring, PdCl2(dppf)-CH2Cl2/K2CO3, dioxane/H2O, 1.28 mM, 85.0 °C): 36%
Nc1cc(C2CCNCC(=O)N(CCc3ccccc3)Cc3cccc(c3)Cn3cc2cn3)c2nn[nH]c2n1 (stereo not drawn) [Example 33, 7-{5-Amino-3H-[1,2,3]triazolo[4,5-b]pyridin-7-yl}-13-(2-phenylethyl)-3,4,10,13-tetraazatricyclo[13.3.1.1^3,^6]icosa-1(19),4,6(20),15,17-pentaen-12-one]	101 to 999 nM	1 to 100 nM	
Nc1cc(C2CCNCCc3cccc(c3)-c3cccc(c3)Cn3cc2cn3)c2nn[nH]c2n1 (stereo not drawn) [Example 30, 7-{8,9,15-triazatetracyclo[16.3.1.1^2,^6.1^8,^11]tetracosa-1(22),2,4,6(24),9,11(23),18,20-octaen-12-yl}-3H-[1,2,3]triazolo[4,5-b]pyridin-5-amine]	101 to 999 nM	1 to 100 nM	
NC(=O)CN1CCc2cccc(c2)Oc2cccc(c2)Cn2cc(cn2)C(c2cc(N)nc3[nH]nnc23)CC1 (stereo not drawn) [Example 35, 2-(7-{15-Amino-3H-[1,2,3]triazolo[4,5-b]pyridin-7-yl}-18-oxa-3,4,10-triazatetracyclo[17.3.1.1^3,^6.1^13,^17]pentacosa-1(23),4,6(25),13,15,17(24),19,21-octaen-10-yl)acetamide]	1000 to 10000 nM	1000 to 10000 nM	
Nc1cc(C2CCN3C[C@H](Cc4ccccc4)[C@@H](C3)Oc3cccc(c3)Cn3cc2cn3)c2nn[nH]c2n1 (stereo partly drawn) [Example 31, 7-[(3S,4S)-4-Benzyl-2-oxa-6,12,13-triazatetracyclo[13.3.1.1^3,^6.1^1^0,^13]henicosa-1(18),10(20),11,15(19),16-pentaen-9-yl]-3H-[1,2,3]triazolo[4,5-b]pyridin-5-amine]	101 to 999 nM	1 to 100 nM	
COCCN1CCc2cccc(c2)Oc2cccc(c2)Cn2cc(cn2)C(c2cc(N)nc3[nH]nnc23)CC1 (stereo not drawn) [Example 37, 7-[10-(2-Methoxyethyl)-18-oxa-3,4,10-triazatetracyclo[17.3.1.1^3,^6.1^13,^1^7]pentacosa-1(23),4,6(25),13,15,17(24),19,21-octaen-7-yl]-3H-[1,2,3]triazolo[4,5-b]pyridin-5-amine]	1000 to 10000 nM	101 to 999 nM	
